This assay concerns human adult PBMCs. The assay is described as follows: TNF production by ELISA after stimulation of human adult PBMCs. In kind it is cell-based. To be noted: adult PBMCs, 33 μM, 18 hours; for TNF (Median): ELISA, unit not given (FIG. 6B/7B legends: TNF concentration in ng/ml); for TNF (Median) / TNF % (Median): N=3-5; for Activity class: class according to TNF % as compared to R848; for TNF % (Median): median percentage TNF production as compared to R848. As for the experimental part: Table 1. Activity of Exemplary Imidazopyrimidine Compounds on Stimulating TNF Production in PBMCs as Compared to Compound R848 Table 1 provides the activity of exemplary compounds on stimulating TNF production in PBMCs as compared to the benchmark compound R848. Specifically, TNF production was measured by ELISA after stimulation of adult PBMCs with compound 037 analog family or the compound R848 at 33 μM for 18 hours. Analogs are ranked top to bottom by median percentage TNF production (TNF %) as compared to R848 (N=3-5). The compounds have been classified in the following categories according to TNF %: high activity—class A: TNF %>15%; medium activity—class B: 1%<TNF %≤15%; low activity—class C: TNF %≤1%.
ELISAs and Multiplex-Analyte Assays. Supernatants derived from human PBMCs and DC stimulations were assayed by ELISA for TNF (ThermoFisher Scientific; Waltham, Mass., USA). Cytokine and chemokine expression profiles (e.g., IFNγ, IL-9, IL-10, IL-12 (p70), IL-13, IL-1β, IL-23, IL-27, IL-28A, IL-33, IL-6, MIP-3α/CCL20, and TNF) in cell culture supernatants were measured using a customized Milliplex® Human Th17 Magnetic Bead Panel according to the manufacturer's instructions (Millipore, Chicago, Ill., USA). Assays were read and analyzed on the Luminex® 100/200™ System and xPOTENT® software (Luminex, Austin, Tex.). A minimum threshold was set at the minimum detectable concentration for each individual assay, defined as three standard deviations above the mean background.
PBMCs were isolated from blood using a Ficoll density gradient. PBMCs either used fresh or were stored at 5×10^7 cells per vial in 1 mL RPMI containing 20% autologous plasma and 10% DMSO at −80° C. until use. Stimulation plates were prepared by transferring 0.66 μl of DMSO-dissolved compounds (10 mM) to each well of a round bottom 96-well plate. PBMCs isolated from human adult donors were resuspended at a concentration of 10^5 cells/200 μl of RPMI supplemented with 10% of platelet-poor plasma. 200 μl of the cell suspension were transferred to each well resulting in a final compound concentration of […]. After about 18 hours of incubation (37° C., 5% CO2), plates were spun down (500×g, room temperature, 5 minutes) and supernatants were harvested for further analysis.
In general terms: An ELISA detects its analyte on a solid surface through an enzyme-linked reagent.

32 molecules from US11673891B2, “Imidazopyrimidine compounds and uses thereof” (Dana-Farber Cancer Institute, Inc., priority 2017, dated 2023) can be followed below.

Molecules are shown by their SMILES.

Turning to `Cc1ccc(-c2cn3cccnc3n2)cc1NC(=O)c1ccccc1Br` [Example 37.16], the “TNF (Median)” value amounted to 3.5625, the Activity class entry is “A (high activity—class A: TNF %>15%)” and the “TNF % (Median)” value came to 90.17%.

As to `Cc1ccc(-c2cn3cccnc3n2)cc1NC(=O)c1ccccc1C` [Example 37.17], the “TNF (Median)” value is listed as 0.865, the Activity class entry is recorded as “A (high activity—class A: TNF %>15%)” and the “TNF % (Median)” value stood at 20.64%.

`Cc1ccc(-c2cn3cccnc3n2)cc1NC(=O)c1ccccc1Cl` [Example 37.33]: the “TNF (Median)” value amounted to 0.288, the Activity class result was “A (high activity—class A: TNF %>15%)” and the “TNF % (Median)” value is 22.94%.

For `Cc1ccc(-c2cn3cccnc3n2)cc1NC(=O)c1ccccc1C(F)(F)F` [Example 37.37], the “TNF (Median)” value amounted to 3.73, the Activity class entry is “A (high activity—class A: TNF %>15%)” and the “TNF % (Median)” value is 71.12%.

As to `Cc1ccc(-c2cn3cccnc3n2)cc1NC(=O)Cc1ccccc1` [FRF-02-103], the “TNF (Median)” value was 0.008, the Activity class result was “C (low activity—class C: TNF %≤1%)” and the “TNF % (Median)” value is on record as 0.18%.

As to `Cc1ccc(-c2cn3cc(F)cnc3n2)cc1NC(=O)c1ccccc1Cl` [FRF-02-115], the “TNF (Median)” value worked out at 0.0625, the Activity class result was “B (medium activity—class B: 1%<TNF %≤15%)” and the “TNF % (Median)” value is given as 2.42%.

For `Cc1ccc(-c2cn3cc(F)cnc3n2)cc1NC(=O)c1ccccc1Br` [FRF-02-116], the “TNF (Median)” value turned out to be 0.594, the Activity class result was “B (medium activity—class B: 1%<TNF %≤15%)” and the “TNF % (Median)” value amounted to 8.48%.

`Cc1ccc(-c2cn3cc(F)cnc3n2)cc1NC(=O)c1ccccc1C` [FRF-02-117]: the “TNF (Median)” value came to 0.138, the Activity class entry is “B (medium activity—class B: 1%<TNF %≤15%)” and the “TNF % (Median)” value turned out to be 3.06%.

On to `Cc1ccc(-c2cn3cc(F)cnc3n2)cc1NC(=O)c1ccccc1C(F)(F)F` [FRF-02-118], for which the “TNF (Median)” value came out at 1.8795, the Activity class result is “A (high activity—class A: TNF %>15%)” and the “TNF % (Median)” value amounted to 43.53%.

In the case of `CCC(C(=O)Nc1cc(-c2cn3cc(F)cnc3n2)ccc1C)c1ccccc1` (stereo not drawn) [FRF-02-119, N-(5-(6-Fluoroimidazo[1,2-a]pyrimidin-2-yl)-2-methylphenyl)-2-phenylbutanamide], the “TNF (Median)” value is 0.219, the Activity class result is on record as “B (medium activity—class B: 1%<TNF %≤15%)” and the “TNF % (Median)” value amounted to 4.35%.

For `COc1cnc2nc(-c3ccc(C)c(NC(=O)c4ccccc4Cl)c3)cn2c1` [FRF-02-131], the “TNF (Median)” value amounted to 0.008, the Activity class entry is “C (low activity—class C: TNF %≤1%)” and the “TNF % (Median)” value is given as 0.18%.

For the molecule `COc1cnc2nc(-c3ccc(C)c(NC(=O)c4ccccc4Br)c3)cn2c1` [FRF-02-132], the “TNF (Median)” value is given as 0.008, the Activity class result is on record as “C (low activity—class C: TNF %≤1%)” and the “TNF % (Median)” value is 0.18%.

On to `COc1cnc2nc(-c3ccc(C)c(NC(=O)c4ccccc4C)c3)cn2c1` [FRF-02-134], for which the “TNF (Median)” value worked out at 0.008, the Activity class entry is “C (low activity—class C: TNF %≤1%)” and the “TNF % (Median)” value amounted to 0.18%.

On to `COc1cnc2nc(-c3ccc(C)c(NC(=O)c4ccccc4C(F)(F)F)c3)cn2c1` [FRF-02-135], for which the “TNF (Median)” value is reported as 0.0705, the Activity class entry is “B (medium activity—class B: 1%<TNF %≤15%)” and the “TNF % (Median)” value amounted to 1.60%.

As to `CCC(C(=O)Nc1cc(-c2cn3cc(OC)cnc3n2)ccc1C)c1ccccc1` (stereo not drawn) [FRF-02-137], the “TNF (Median)” value came out at 0.04, the Activity class result is on record as “B (medium activity—class B: 1%<TNF %≤15%)” and the “TNF % (Median)” value is on record as 1.27%.

Consider `CCC(C(=O)Nc1cc(-c2cn3cc(C)cnc3n2)ccc1C)c1ccccc1` (stereo not drawn) [FRF-02-144-1, N-(2-Methyl-5-(6-methylimidazo[1,2-a]pyrimidin-2-yl)phenyl)-2-phenylbutanamide], for which the “TNF (Median)” value is 3.144, the Activity class result is “A (high activity—class A: TNF %>15%)” and the “TNF % (Median)” value stood at 55.24%.

In the case of `Cc1cnc2nc(-c3ccc(C)c(NC(=O)c4ccccc4Cl)c3)cn2c1` [FRF-02-144-2], the “TNF (Median)” value came to 2.5245, the Activity class result is “A (high activity—class A: TNF %>15%)” and the “TNF % (Median)” value was determined as 104.32%.

Consider `Cc1cnc2nc(-c3ccc(C)c(NC(=O)Cc4ccccc4)c3)cn2c1` [FRF-02-162-1], for which the “TNF (Median)” value was 0.008, the Activity class entry is reported as “C (low activity—class C: TNF %≤1%)” and the “TNF % (Median)” value was determined as 0.42%.

Regarding `Cc1cnc2nc(-c3ccc(C)c(NC(=O)c4ccccc4C)c3)cn2c1` [FRF-02-162-2], the “TNF (Median)” value is given as 0.309, the Activity class entry is listed as “B (medium activity—class B: 1%<TNF %≤15%)” and the “TNF % (Median)” value came out at 6.34%.

Turning to `Cc1ccc(-c2cn3cc(F)cnc3n2)cc1NC(=O)c1cc(F)ccc1C(F)(F)F` [FRF-02-166], the “TNF (Median)” value was found to be 2.0745, the Activity class result is “A (high activity—class A: TNF %>15%)” and the “TNF % (Median)” value was determined as 53.91%.

With `Cc1ccc(-c2cn3cc(F)cnc3n2)cc1NC(=O)c1ccc(F)cc1C(F)(F)F` [FRF-02-167], the “TNF (Median)” value stood at 1.101, the Activity class entry was “A (high activity—class A: TNF %>15%)” and the “TNF % (Median)” value was 51.62%.

Regarding `Cc1ccc(-c2cn3cc(F)cnc3n2)cc1NC(=O)c1ccc(Cl)cc1C(F)(F)F` [FRF-02-169], the “TNF (Median)” value was 0.008, the Activity class entry is recorded as “C (low activity—class C: TNF %≤1%)” and the “TNF % (Median)” value was 0.18%.

As to `Cc1ccc(C(=O)Nc2cc(-c3cn4cc(F)cnc4n3)ccc2C)c(C(F)(F)F)c1` [FRF-02-171], the “TNF (Median)” value is listed as 2.1615, the Activity class result is given as “A (high activity—class A: TNF %>15%)” and the “TNF % (Median)” value stood at 65.93%.

In the case of `CCC(C(=O)Nc1cc(-c2cn3cc(C)cnc3n2)ccc1Cl)c1ccccc1` (stereo not drawn) [FRF-02-174-1], the “TNF (Median)” value is 0.924, the Activity class entry is “A (high activity—class A: TNF %>15%)” and the “TNF % (Median)” value is on record as 35.71%.

Consider `Cc1cnc2nc(-c3ccc(Cl)c(NC(=O)c4ccccc4C(F)(F)F)c3)cn2c1` [FRF-02-174-2], for which the “TNF (Median)” value was found to be 0.1455, the Activity class result is listed as “B (medium activity—class B: 1%<TNF %≤15%)” and the “TNF % (Median)” value came out at 13.99%.

For the molecule `Cc1ccc(-c2cn3cc(F)cnc3n2)cc1NC(=O)c1c(F)cccc1C(F)(F)F` [FRF-02-175], the “TNF (Median)” value is given as 0.063, the Activity class result is recorded as “B (medium activity—class B: 1%<TNF %≤15%)” and the “TNF % (Median)” value amounted to 1.43%.

For `COc1ccc(C(=O)Nc2cc(-c3cn4cc(F)cnc4n3)ccc2C)c(C)c1` [FRF-02-176], the “TNF (Median)” value was 0.087, the Activity class entry was “B (medium activity—class B: 1%<TNF %≤15%)” and the “TNF % (Median)” value came out at 3.81%.

With `COc1ccc(C(=O)Nc2cc(-c3cn4cccnc4n3)ccc2C)c(C)c1` [FRF-02-182], the “TNF (Median)” value was determined as 0.008, the Activity class entry is given as “C (low activity—class C: TNF %≤1%)” and the “TNF % (Median)” value is 0.39%.

For `COc1ccc(C)c(C(=O)Nc2cc(-c3cn4cccnc4n3)ccc2C)c1` [FRF-02-183], the “TNF (Median)” value is on record as 0.008, the Activity class result is on record as “C (low activity—class C: TNF %≤1%)” and the “TNF % (Median)” value is reported as 0.77%.

Consider `COc1ccc(C)c(C(=O)Nc2cc(-c3cn4cc(F)cnc4n3)ccc2C)c1` [FRF-02-187], for which the “TNF (Median)” value amounted to 1.191, the Activity class result was “A (high activity—class A: TNF %>15%)” and the “TNF % (Median)” value came to 31.32%.

On to `Cc1ccc(-c2cn3cccnc3n2)cc1NC(=O)C(CO)c1ccccc1` (stereo not drawn) [FRF-02-193], for which the “TNF (Median)” value was 2.997, the Activity class result is recorded as “A (high activity—class A: TNF %>15%)” and the “TNF % (Median)” value is 91.73%.

As to `Cc1ccc(-c2cn3cc(F)cnc3n2)cc1NC(=O)C(CO)c1ccccc1` (stereo not drawn) [FRF-02-194], the “TNF (Median)” value was determined as 0.008, the Activity class result is listed as “C (low activity—class C: TNF %≤1%)” and the “TNF % (Median)” value was 0.18%.
